# Biological target: T1, human TRPA1 (Homo sapiens (Human), UniProt O75762)
# Assay: Measurement of TRPA1 antagonist activity (2): as (1), different lot of human TRPA1 expression plasmid
# Format: cell-based
# Settings: 293T cells transfected with human TRPA1, allylisothiocyanate 20 μM stimulation, calcium fluorescence, read-out: hTRPA1 IC50
# How it was run: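 HEK293T cells transiently transfected with human TRPA1 plasmid (different lot), loaded with Calcium4 dye in HBSS/20 mM HEPES pH 7.2. Test compound preincubated 10 min, then allylisothiocyanate added at 20 μM final and fluorescence change read for 5 min. IC50 from sigmoid fit of inhibition relative to AITC-alone and buffer controls.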
# T1 sequence (O75762 whole entry): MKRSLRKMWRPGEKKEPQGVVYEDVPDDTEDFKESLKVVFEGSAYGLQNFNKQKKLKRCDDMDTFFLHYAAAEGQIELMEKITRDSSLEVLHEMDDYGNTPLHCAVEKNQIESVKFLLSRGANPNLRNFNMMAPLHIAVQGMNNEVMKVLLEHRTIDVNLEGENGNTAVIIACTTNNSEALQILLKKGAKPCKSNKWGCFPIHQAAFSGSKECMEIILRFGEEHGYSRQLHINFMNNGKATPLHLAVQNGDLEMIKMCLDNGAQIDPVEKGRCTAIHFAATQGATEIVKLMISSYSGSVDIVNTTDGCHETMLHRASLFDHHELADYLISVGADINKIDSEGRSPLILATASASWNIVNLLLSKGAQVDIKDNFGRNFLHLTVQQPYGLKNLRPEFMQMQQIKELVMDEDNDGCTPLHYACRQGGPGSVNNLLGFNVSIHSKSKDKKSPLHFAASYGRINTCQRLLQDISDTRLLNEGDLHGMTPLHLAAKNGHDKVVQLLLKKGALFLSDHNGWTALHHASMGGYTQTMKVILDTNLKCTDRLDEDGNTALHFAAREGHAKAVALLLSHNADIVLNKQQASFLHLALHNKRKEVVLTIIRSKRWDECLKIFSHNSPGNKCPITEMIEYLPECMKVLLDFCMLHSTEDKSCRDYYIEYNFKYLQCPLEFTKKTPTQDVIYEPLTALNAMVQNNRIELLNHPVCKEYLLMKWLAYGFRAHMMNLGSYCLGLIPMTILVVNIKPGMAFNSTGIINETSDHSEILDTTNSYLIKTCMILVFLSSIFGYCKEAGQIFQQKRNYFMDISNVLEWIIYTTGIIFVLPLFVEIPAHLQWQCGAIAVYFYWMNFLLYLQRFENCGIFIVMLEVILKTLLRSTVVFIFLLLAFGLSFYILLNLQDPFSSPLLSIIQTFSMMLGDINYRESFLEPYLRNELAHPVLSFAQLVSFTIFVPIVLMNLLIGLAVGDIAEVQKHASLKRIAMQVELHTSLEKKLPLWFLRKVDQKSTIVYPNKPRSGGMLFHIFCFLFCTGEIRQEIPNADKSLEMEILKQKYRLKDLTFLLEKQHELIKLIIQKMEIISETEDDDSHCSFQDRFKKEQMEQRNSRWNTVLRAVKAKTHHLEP
row,Structure (SMILES),IC50
1,"O=C(NCc1cncc(-c2ccc(C(F)(F)F)cn2)c1)[C@@H]1CCCN1S(=O)(=O)c1cc2ccccc2o1 [Example 87, (2S)-1-(benzofuran-2-ylsulfonyl)-N-[[5-[5-(trifluoromethyl)-2-pyridyl]-3-pyridyl]methyl]pyrrolidine-2-carboxamide]",0.052 µM
2,"O=C(NCc1cc(-c2ccc(C(F)(F)F)cn2)ncn1)[C@@H]1CCN1S(=O)(=O)c1cc2cc(F)ccc2o1 [Example 401, (2S)-1-(5-fluorobenzofuran-2-yl)sulfonyl-N-[[6-[5-(trifluoromethyl)-2-pyridyl]pyrimidin-4-yl]methyl]azetidine-2-carboxamide]",0.012 µM
3,"O=C(NCc1ccnc(-c2cnc(C(F)(F)F)nc2)c1)[C@@H]1CCN1S(=O)(=O)c1cc2cc(F)ccc2o1 [Example 403, (2S)-1-(5-fluorobenzofuran-2-yl)sulfonyl-N-[[2-[2-(trifluoromethyl)pyrimidin-5-yl]-4-pyridyl]methyl]azetidine-2-carboxamide]",0.013 µM
4,"O=C(NCc1ccc(O)c(-c2ccc(C(F)(F)F)cn2)c1)[C@@H]1CCN1S(=O)(=O)c1cc2cc(F)ccc2o1 [Example 404, (2S)-1-(5-fluorobenzofuran-2-yl)sulfonyl-N-[[4-hydroxy-3-[5-(trifluoromethyl)-2-pyridyl]phenyl]methyl]azetidine-2-carboxamide]",0.0097 µM
5,"O=C(NCc1cc(-c2ncc(C(F)(F)F)cn2)ccn1)[C@@H]1CCCN1S(=O)(=O)c1cc2cc(F)ccc2o1 [Example 407, (2S)-1(5-fluorobenzofuran-2-yl)sulfonyl-N-[[4-[5-(trifluoromethyl)pyrimidin-2-yl]-2-pyridyl]methyl]pyrrolidine-2-carboxamide]",0.007 µM
6,"O=C(NCc1cc(-c2ccc(C(F)(F)F)nc2)ncn1)[C@@H]1CCN1S(=O)(=O)c1cc2ccccc2o1 [Example 408, (2S)-1-(benzofuran-2-ylsulfonyl)-N-[[6-[6-(trifluonomethyl)-3-pyridyl]pyrimidin-4-yl]methyl]azetidine-2-carboxamide]",0.016 µM
7,"O=C(NCc1cc(-c2cnc(C(F)(F)F)nc2)ncn1)[C@@H]1CCN1S(=O)(=O)c1cc2ccccc2o1 [Example 409, (2S)-1-(benzofuran-2-ylsulfonyl)-N-[[6-[2-(trifluoromethyl)pyrimidin-5-yl]pyrimidin-4-yl]methyl]azetidine-2-carboxamide]",0.029 µM
8,"CN(C)c1nc(CNC(=O)[C@@H]2CCN2S(=O)(=O)c2cc3ccccc3o2)cc(-c2ccc(C(F)(F)F)nc2)n1 [Example 410, (2S)-1-(benzofuran-2-ylsulfonyl)-N-[[2-(dimethylamino)-6-[6-(trifluoromethyl)-3-pyridyl]pyrimidin-4-yl]methyl]azetidine-2-carboxamide]",0.038 µM
9,"O=C(NCc1ccnc(-c2ccc(C(F)(F)F)cc2O)c1)[C@@H]1CCN1S(=O)(=O)c1cc2ccccc2o1 [Example 411, (2S)-1-(benzofuran-2-ylsulfonyl)-N-[[2-[2-hydroxy-4-(trifluoromethyl)phenyl]-4-pyridyl]methyl]azetidine-2-carboxamide]",0.025 µM
10,"CC(C)N(CC(=O)NCc1cc(-c2ccc(C(F)(F)F)cc2O)ncn1)S(=O)(=O)c1cc2cc(F)ccc2o1 [Example 413, 2-[(5-fluorobenzofuran-2-yl)sulfonyl-isopropyl-amino]-N-[[6-[2-hydroxy-4-(trifluoromethyl)phenyl]pyrimidin-4-yl]methyl]acetamide]",0.012 µM
11,"C[C@H](NS(=O)(=O)c1cc2cnccc2o1)C(=O)NCc1cc(-c2ccc(C(F)(F)F)cc2O)ncn1 [Example 414, (2S)-2-(furo[3,2-c]pyridin-2-ylsulfonylamino)-N-[[6-[2-hydroxy-4-(trifluoromethyl)phenyl]pyrimidin-4-yl]methyl]propanamide]",0.034 µM
12,"C=CCN([C@@H](C)C(=O)NCc1cc(-c2ccc(C(F)(F)F)cn2)ccn1)S(=O)(=O)c1cc2cc(F)ccc2o1 [Example 417, (2S)-2-[allyl-(5-fluorobenzofuran-2-yl)sulfonyl-amino]-N-[[4-[5-(trifluoromethyl)-2-pyridyl]-2-pyridyl]methyl]propanamide]",0.014 µM
13,"C#CCN([C@@H](C)C(=O)NCc1cc(-c2ccc(C(F)(F)F)cn2)ccn1)S(=O)(=O)c1cc2cc(F)ccc2o1 [Example 418, (2S)-2-[(5-fluorobenzofuran-2-yl)sulfonyl-prop-2-ynylamino]-N-[[4-[5-(trifluoromethyl)-2-pyridyl]-2-pyridyl]methyl]propanamide]",0.011 µM
14,"CC(C)N(CC(=O)NCc1cc(-c2ccc(C(F)(F)F)cc2)ncn1)S(=O)(=O)c1cc2cc(F)ccc2o1 [Example 420, 2-[(5-fluorobenzofuran-2-yl)sulfonyl-isopropyl-amino]-N-[[6-[4-(trifluoromethyl)phenyl]pyrimidin-4-yl]methyl]acetamide]",0.01 µM
15,"O=C(CN(CC1CCNCC1)S(=O)(=O)c1cc2cc(F)ccc2o1)NCc1cc(-c2ccc(C(F)(F)F)cn2)ccn1 [Example 423, 2-[(5-fluorobenzofuran-2-yl)sulfonyl-(4-piperidylmethyl)amino]-N-[[4-[5-(trifluoromethyl)-2-pyridyl]-2-pyridyl]methyl]acetamide]",0.033 µM
16,"O=C(CN(CC1CCNCC1)S(=O)(=O)c1cc2cc(F)ccc2o1)NCc1cc(-c2ccc(C(F)(F)F)cc2)ncn1 [Example 424, 2-[(5-fluorobenzofuran-2-yl)sulfonyl-(4-piperidylmethyl)amino]-N-[[6-[4-(trifluoromethyl)phenyl]pyrimidin-4-yl]methyl]acetamide]",0.021 µM
17,"C[C@@H](C(=O)NCc1cc(-c2ccc(C(F)(F)F)cn2)ccn1)N(C)S(=O)(=O)c1cc2cc(F)ccc2o1 [Example 426, (2S)-2-[(5-fluorobenzofuran-2-yl)sulfonyl-methyl-amino]-N-[[4-[5-(trifluoromethyl)-2-pyridyl]-2-pyridyl]methyl]propanamide]",0.0077 µM
18,"O=C(NCc1cc(-c2ccc(C(F)(F)F)cn2)ccn1)C(CF)NS(=O)(=O)c1cc2cc(F)ccc2o1 (stereo not drawn) [Example 427, 3-fluoro-2-[(5-fluorobenzofuran-2-yl)sulfonylamino]-N-[[4-[5-(trifluoromethyl)-2-pyridyl]-2-pyridyl]methyl]propanamide]",0.17 µM

# Stronger by IC50, values ahead:
row,IC50,Structure (SMILES)
1,0.0041 µM,"O=C(NCc1cc(-c2ccc(C(F)(F)F)cn2)ccn1)[C@@H]1CCCN1S(=O)(=O)c1cc2ccccc2o1 [Example 179, (2S)-1-(benzofuran-2-ylsulfonyl)-N-[[4-[5-(trifluoromethyl)-2-pyridyl]-2-pyridyl]methyl]pyrrolidine-2-carboxamide]"
2,0.0052 µM,"O=C(NCc1cc(-c2ccc(C(F)(F)F)cn2)ncn1)[C@@H]1CCCN1S(=O)(=O)c1cc2cc(F)ccc2o1 [Example 400, (2S)-1-(5-fluorobenzofuran-2-yl)sulfonyl-N-[[6-[5-(trifluoromethyl)-2-pyridyl]pyrimidin-4-yl]methyl]pyrrolidine-2-carboxamide]"
3,0.0035 µM,"O=C(NCc1ccnc(-c2cnc(C(F)(F)F)nc2)c1)[C@@H]1CCCN1S(=O)(=O)c1cc2cc(F)ccc2o1 [Example 402, (2S)-1-(5-fluorobenzofuran-2-yl)sulfonyl-N-[[2-[2-(trifluoromethyl)pyrimidin-5-yl]-4-pyridyl]methyl]pyrrolidine-2-carboxamide]"
4,0.0035 µM,"O=C(NCc1cc(-c2cnc(C(F)(F)F)cn2)ccn1)[C@@H]1CCCN1S(=O)(=O)c1cc2cc(F)ccc2o1 [Example 405, (2S)-1-(5-fluorobenzofuran-2-yl)sulfonyl-N-[[4-[5-(trifluoromethyl)pyrazin-2-yl]-2-pyridyl]methyl]pyrrolidine-2-carboxamide]"
5,0.0027 µM,"O=C(NCc1cc(-c2ccc(OC(F)(F)F)cc2)ncn1)[C@@H]1CCCN1S(=O)(=O)c1cc2cc(F)ccc2o1 [Example 406, (2S)-1-(5-fluorobenzofuran-2-yl)sulfonyl-N-[[6-[4-(trifluoromethoxy)phenyl]-pyrimidin-4-yl]methyl]pyrrolidine-2-carboxamide]"
6,0.0027 µM,"O=C(NCc1cc(-c2ccc(C(F)(F)F)cc2O)ncn1)[C@@H]1CCN1S(=O)(=O)c1cc2cc(F)ccc2o1 [Example 412, (2S)-1-(5-fluorobenzofuran-2-yl)sulfonyl-N-[[6-[2-hydroxy-4-(trifluoromethyl)phenyl]pyrimidin-4-yl]methyl]azetidine-2-carboxamide]"
7,0.0042 µM,"CCN([C@@H](C)C(=O)NCc1cc(-c2ccc(C(F)(F)F)cn2)ccn1)S(=O)(=O)c1cc2cc(F)ccc2o1 [Example 416, (2S)-2-[ethyl-(5-fluorobenzofuran-2-yl)sulfonyl-amino]-N-[[4-[5-(trifluoromethyl)-2-pyridyl]-2-pyridyl]methyl]propanamide]"
8,0.0041 µM,"CCN(CC(=O)NCc1cc(-c2ccc(C(F)(F)F)cc2)ncn1)S(=O)(=O)c1cc2cc(F)ccc2o1 [Example 419, 2-[ethyl-(5-fluorobenzofuran-2-yl)sulfonyl-amino]-N-[[6-[4-(trifluoromethyl)phenyl]pyrimidin-4-yl]methyl]acetamide]"
9,0.0029 µM,"C[C@@H](C(=O)NCc1cc(-c2ccc(C(F)(F)F)cc2)ncn1)N(C)S(=O)(=O)c1cc2cc(F)ccc2o1 [Example 421, (2S)-2-[(5-fluorobenzofuran-2-yl)sulfonyl-methyl-amino]-N-[[6-[4-(trifluoromethyl)phenyl]pyrimidin-4-yl]methyl]propanamide]"
10,0.003 µM,"CCN([C@@H](C)C(=O)NCc1cc(-c2ccc(C(F)(F)F)cc2)ncn1)S(=O)(=O)c1cc2cc(F)ccc2o1 [Example 422, (2S)-2-[ethyl-(5-fluorobenzofuran-2-yl)sulfonyl-amino]-N-[[6-[4-(trifluoromethyl)phenyl]pyrimidin-4-yl]methyl]propanamide]"

# Biological target: T1, human TRPA1
# Assay: Measurement of TRPA1 antagonist activity (1): intracellular calcium increase
# Format: cell-based
# Settings: 293T cells transfected with human TRPA1 expression plasmid; allylisothiocyanate 20 μM stimulation; intracellular calcium fluorescence; read-out: hTRPA1 IC50
# How it was run: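 HEK293T cells transiently transfected with full-length human TRPA1, loaded with Calcium4 dye in HBSS/20 mM HEPES pH 7.2. Test compound preincubated 10 min, then allylisothiocyanate added at 20 μM final and fluorescence change followed for 5 min. IC50 from sigmoid fit of percent inhibition relative to agonist and buffer controls.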
row,IC50,Structure (SMILES)
1,0.026 µM,"O=C(NCc1cncc(-c2ccc(C(F)(F)F)cn2)c1)[C@@H]1CCCN1S(=O)(=O)c1cc2ccccc2o1 [Example 87, (2S)-1-(benzofuran-2-ylsulfonyl)-N-[[5-[5-(trifluoromethyl)-2-pyridyl]-3-pyridyl]methyl]pyrrolidine-2-carboxamide]"
2,0.0013 µM,"O=C(NCc1cc(-c2ccc(C(F)(F)F)cn2)ccn1)[C@@H]1CCCN1S(=O)(=O)c1cc2ccccc2o1 [Example 179, (2S)-1-(benzofuran-2-ylsulfonyl)-N-[[4-[5-(trifluoromethyl)-2-pyridyl]-2-pyridyl]methyl]pyrrolidine-2-carboxamide]"

# — patent US10626112B2, “Heterocyclic sulfonamide derivative and medicine comprising same” (EA PHARMA CO., LTD., priority 2014, dated 2020)
